Laboratory results reported in US20230219969A1 (priority 2020, published 2023).

Experiments:
[1] = biological target: T1, 5-HT2C edited (accession number AAF35842.1) (Homo sapiens, UniProt P28335, I156V/I160V/N158S); experiment: biochemical; format: binding
Target sequence in this assay (P28335 whole entry I156V/N158S/I160V, looked up): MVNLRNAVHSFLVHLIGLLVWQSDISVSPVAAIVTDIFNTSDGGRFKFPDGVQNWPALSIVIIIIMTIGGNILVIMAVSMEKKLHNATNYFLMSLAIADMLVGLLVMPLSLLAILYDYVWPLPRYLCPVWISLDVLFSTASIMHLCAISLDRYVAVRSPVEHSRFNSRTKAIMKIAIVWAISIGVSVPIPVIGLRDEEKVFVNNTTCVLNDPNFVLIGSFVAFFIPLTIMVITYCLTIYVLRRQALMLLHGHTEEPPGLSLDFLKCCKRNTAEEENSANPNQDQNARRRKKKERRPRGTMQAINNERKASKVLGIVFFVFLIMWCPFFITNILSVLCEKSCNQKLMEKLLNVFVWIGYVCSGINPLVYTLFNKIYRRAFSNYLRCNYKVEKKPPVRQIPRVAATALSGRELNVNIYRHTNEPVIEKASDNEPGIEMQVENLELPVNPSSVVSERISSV

[2] = biological target: T1, 5-HT2C edited (accession number AAF35842.1); experiment: cell-based
Target sequence in this assay (P28335 33-458 I156V/N158S/I160V limits assumed): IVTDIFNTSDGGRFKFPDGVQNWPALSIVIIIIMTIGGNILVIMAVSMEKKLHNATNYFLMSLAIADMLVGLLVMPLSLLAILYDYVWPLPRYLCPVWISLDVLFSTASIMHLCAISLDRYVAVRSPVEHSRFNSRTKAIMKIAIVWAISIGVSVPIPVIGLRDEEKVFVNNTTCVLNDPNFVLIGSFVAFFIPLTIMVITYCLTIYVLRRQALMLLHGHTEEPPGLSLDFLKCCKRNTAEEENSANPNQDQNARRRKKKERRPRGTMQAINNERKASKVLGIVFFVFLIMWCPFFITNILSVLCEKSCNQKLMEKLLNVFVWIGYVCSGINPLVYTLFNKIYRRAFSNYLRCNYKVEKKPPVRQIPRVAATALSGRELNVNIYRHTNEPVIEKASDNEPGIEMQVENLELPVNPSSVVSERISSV

Row | Compound | IC50 [1] | EC50 [2]
1 | COc1ccc2c(ccn2CC(C)(C)N(C)C)c1 [Example 1, 1-(5-methoxy-1H-indol-1-yl)-N,N,2-trimethylpropan-2-amine] | 1 to 10 µM | > 10 µM
2 | COc1ccc2c(ccn2CC2(N(C)C)CC2)c1 [Example 2, 1-((5-methoxy-1H-indol-1-yl)methyl)-N,N-dimethylcyclopropan-1-amine] | 1 to 10 µM | > 10 µM
3 | COc1ccc2c(ccn2CCN(C)C)n1 [Example 3, 2-(5-methoxy-1H-pyrrolo[3,2-b]pyridin-1-yl)-N,N-dimethylethan-1-amine] | 0.101 to 1 µM | > 10 µM
4 | COc1cc2ccn(CCN(C)C)c2cn1 [Example 4, 2-(5-methoxy-1H-pyrrolo[2,3-c]pyridin-1-yl)-N,N-dimethylethan-1-amine] | 0.101 to 1 µM | > 10 µM
5 | COc1cnc2c(ccn2CCN(C)C)c1 [Example 5, 2-(5-methoxy-1H-pyrrolo[2,3-b]pyridin-1-yl)-N,N-dimethylethan-1-amine] | 0.101 to 1 µM | > 10 µM
6 | CN(C)CCn1ccc2cncnc21 [Example 6, N,N-dimethyl-2-(7H-pyrrolo[2,3-d]pyrimidin-7-yl)ethan-1-amine] | 1 to 10 µM | > 10 µM
7 | CN(C)CCn1ccc2cnccc21 [Example 7, N,N-dimethyl-2-(1H-pyrrolo[3,2-c]pyridin-1-yl)ethan-1-amine] | > 10 µM | > 10 µM
8 | COc1ccc2c(c1)CCN2CCN(C)C [Example 8, 2-(5-methoxyindolin-1-yl)-N,N-dimethylethan-1-amine] | 1 to 10 µM | > 10 µM
9 | COc1ccc2c(c1)CCCN2CCN(C)C [Example 9, 2-(6-methoxy-3,4-dihydroquinolin-1(2H)-yl)-N,N-dimethylethan-1-amine] | 0.101 to 1 µM | > 10 µM
10 | COc1ccc2c(c1)CN(CCN(C)C)C2 [Example 10, 2-(5-methoxyisoindolin-2-yl)-N,N-dimethylethan-1-amine] | 1 to 10 µM | 1 to 10 µM
11 | COc1ccc2c(c1)CCN(CCN(C)C)C2 [Example 11, 2-(6-methoxy-3,4-dihydroisoguinolin-2(1H)-yl)-N,N-dimethylethan-1-amine] | 0.101 to 1 µM | > 10 µM
12 | CN(C)C(C)(C)Cn1ccc2c(F)c(F)ccc21 [Example 12, 1-(4,5-difluoro-1H-indol-1-yl)-N,N,2-trimethylpropan-2-amine] | > 10 µM | > 10 µM
13 | Cc1cn(CC(C)(C)N(C)C)c2ccc(F)cc12 [Example 13, 1-(5-fluoro-3-methyl-1H-indol-1-yl)-N,N,2-trimethylpropan-2-amine] | 1 to 10 µM | 1 to 10 µM
14 | CN(C)C(C)(C)Cn1ccc2cc(F)ccc21 [Example 14, 1-(5-fluoro-1H-indol-1-yl)-N,N,2-trimethylpropan-2-amine] | > 10 µM | > 10 µM
15 | COc1ccc2c(ccn2CC(C)(C)N(C)C)c1F [Example 15, 1-(4-fluoro-5-methoxy-1H-indol-1-yl)-N,N,2-trimethylpropan-2-amine] | > 10 µM | > 10 µM
16 | COc1cc2ccn(CC(C)(C)N(C)C)c2cc1F [Example 16, 1-(6-fluoro-5-methoxy-1H-indol-1-yl)-N,N,2-trimethylpropan-2-amine] | > 10 µM | > 10 µM
17 | COc1cc(F)c2c(ccn2CC(C)(C)N(C)C)c1 [Example 17, 1-(7-fluoro-5-methoxy-1H-indol-1-yl)-N,N,2-trimethylpropan-2-amine] | > 10 µM | > 10 µM
18 | CN(C)C(C)(C)Cn1ccc2c(F)cccc21 [Example 18, 1-(4-fluoro-1H-indol-1-yl)-N,N,2-trimethylpropan-2-amine] | > 10 µM | > 10 µM
19 | CN(C)C(C)(C)Cn1ccc2ccc(F)cc21 [Example 19, 1-(6-fluoro-1H-indol-1-yl)-N,N,2-trimethylpropan-2-amine] | > 10 µM | > 10 µM
20 | CN(C)C(C)(C)Cn1ccc2cccc(F)c21 [Example 20, 1-(7-fluoro-1H-indol-1-yl)-N,N,2-trimethylpropan-2-amine] | > 10 µM | > 10 µM
21 | COc1ccc2c(ccn2CC(C)(C)N(C)C)n1 [Example 21, 1-(5-methoxy-1H-pyrrolo[3,2-b]pyridin-1-yl)-N,N,2-trimethylpropan-2-amine] | > 10 µM | > 10 µM
22 | COc1cc2ccn(CC(C)(C)N(C)C)c2cn1 [Example 22, 1-(5-methoxy-1H-pyrrolo[2,3-c]pyridin-1-yl)-N,N,2-trimethylpropan-2-amine] | > 10 µM | > 10 µM
23 | COc1ncc2c(ccn2CC(C)(C)N(C)C)n1 [Example 23, 1-(2-methoxy-5H-pyrrolo[3,2-d]pyrimidin-5-yl)-N,N,2-trimethylpropan-2-amine] | > 10 µM | > 10 µM
24 | COc1ccc2c(ccn2[C@H]2C[C@@H](N(C)C)C2)c1 [Example 24, (1s,3s)-3-(5-methoxy-1H-indol-1-yl)-N,N-dimethylcyclobutan-1-amine] | 1 to 10 µM | > 10 µM

Row | Compound | IC50 [1] | EC50 [2]
25 | COc1ccc2c(ccn2[C@H]2C[C@H](N(C)C)C2)c1 [Example 25, (1r,3r)-3-(5-methoxy-1H-indol-1-yl)-N,N-dimethylcyclobutan-1-amine] | 1 to 10 µM | > 10 µM
26 | C[C@@H](N)Cn1ccc2cncnc21 [Example 26, (R)-1-(7H-pyrrolo[2,3-d]pyrimidin-7-yl)propan-2-amine] | 1 to 10 µM | 1 to 10 µM
27 | C[C@H](Cn1ccc2cncnc21)N(C)C [Example 27, (R)—N,N-dimethyl-1-(7H-pyrrolo[2,3-d]pyrimidin-7-yl)propan-2-amine] | > 10 µM | > 10 µM
28 | COc1ccc2c(ccn2C[C@@H](C)N)n1 [Example 28, (R)-1-(5-methoxy-1H-pyrrolo[3,2-b]pyridin-1-yl)propan-2-amine] | > 10 µM | 1 to 10 µM
29 | CN[C@H](C)Cn1ccc2nc(OC)ccc21 [Example 29, (R)-1-(5-methoxy-1H-pyrrolo[3,2-b]pyridin-1-yl)-N-methylpropan-2-amine] | > 10 µM | > 10 µM
30 | COc1ccc2c(ccn2C[C@@H](C)N(C)C)n1 [Example 30, (R)-1-(5-methoxy-1H-pyrrolo[3,2-b]pyridin-1-yl)-N,N-dimethylpropan-2-amine] | > 10 µM | > 10 µM
31 | COc1cc2ccn(C[C@@H](C)N)c2cn1 [Example 31, (R)-1-(5-methoxy-1H-pyrrolo[2,3-c]pyridin-1-yl)propan-2-amine] | 0.101 to 1 µM | 0.101 to 1 µM
32 | CN[C@H](C)Cn1ccc2cc(OC)ncc21 [Example 32, (R)-1-(5-methoxy-1H-pyrrolo[2,3-c]pyridin-1-yl)-N-methylpropan-2-amine] | 1 to 10 µM | 1 to 10 µM
33 | COc1cc2ccn(C[C@@H](C)N(C)C)c2cn1 [Example 33, (R)-1-(5-methoxy-1H-pyrrolo[2,3-c]pyridin-1-yl)-N,N-dimethylpropan-2-amine] | > 10 µM | > 10 µM
34 | COc1cnc2c(ccn2C[C@@H](C)N)c1 [Example 34, (R)-1-(5-methoxy-1H-pyrrolo[2,3-b]pyridin-1-yl)propan-2-amine] | 1 to 10 µM | 1 to 10 µM
35 | CN[C@H](C)Cn1ccc2cc(OC)cnc21 [Example 35, (R)-1-(5-methoxy-1H-pyrrolo[2,3-b]pyridin-1-yl)-N-methylpropan-2-amine] | > 10 µM | 1 to 10 µM
36 | COc1cnc2c(ccn2C[C@@H](C)N(C)C)c1 [Example 36, (R)-1-(5-methoxy-1H-pyrrolo[2,3-b]pyridin-1-yl)-N,N-dimethylpropan-2-amine] | 1 to 10 µM | 1 to 10 µM
37 | C[C@@H](N)Cn1ccc2cnccc21 [Example 37, (R)-1-(1H-pyrrolo[3,2-c]pyridin-1-yl)propan-2-amine] | > 10 µM | 1 to 10 µM
38 | CN[C@H](C)Cn1ccc2cnccc21 [Example 38, (R)—N-methyl-1-(1H-pyrrolo[3,2-c]pyridin-1-yl)propan-2-amine] | > 10 µM | > 10 µM
39 | C[C@H](Cn1ccc2cnccc21)N(C)C [Example 39, (R)—N,N-dimethyl-1-(1H-pyrrolo[3,2-c]pyridin-1-yl)propan-2-amine] | > 10 µM | > 10 µM
40 | Cc1cn(CC(C)(C)N)c2ccc(F)cc12 [Example 40, 1-(5-fluoro-3-methyl-1H-indol-1-yl)-2-methylpropan-2-amine] | 0.101 to 1 µM | 0.101 to 1 µM
41 | CC(C)(N)Cn1ccc2c(F)c(F)ccc21 [Example 41, 1-(4,5-difluoro-1H-indol-1-yl)-2-methylpropan-2-amine] | 0.101 to 1 µM | 0.101 to 1 µM
42 | COc1ccc2c(ccn2CC(C)(C)N)c1 [Example 42, 1-(5-methoxy-1H-indol-1-yl)-2-methylpropan-2-amine] | 1 to 10 µM | 1 to 10 µM
43 | CN(C)CC(=O)n1ccc2cc(F)ccc21 [Example 43, 2-(dimethylamino)-1-(5-fluoro-1H-indol-1-yl)ethan-1-one] | > 10 µM | > 10 µM
44 | CN(C)CC(=O)n1ccc2ccccc21 [Example 44, 2-(dimethylamino)-1-(1H-indol-1-yl)ethan-1-one] | > 10 µM | > 10 µM
45 | COc1ccc2c(ccn2C(=O)CN(C)C)c1 [Example 45, 2-(dimethylamino)-1-(5-methoxy-1H-indol-1-yl)ethan-1-one] | > 10 µM | > 10 µM
46 | C[C@H](C(=O)n1ccc2ccccc21)N(C)C [Example 46, (R)-2-(dimethylamino)-1-(1H-indol-1-yl)propan-1-one] | 1 to 10 µM | > 10 µM
47 | COc1ccc2c(ccn2C(=O)[C@@H](C)N(C)C)c1 [Example 47, (R)-2-(dimethylamino)-1-(5-methoxy-1H-indol-1-yl)propan-1-one] | > 10 µM | > 10 µM
48 | C[C@H](C(=O)n1ccc2cc(F)ccc21)N(C)C [Example 48, (R)-2-(dimethylamino)-1-(5-fluoro-1H-indol-1-yl)propan-1-one] | 1 to 10 µM | > 10 µM
